{"source": "patent EP0203559A1", "about": "“Penicillin derivative containing naphthyridine” (AUSONIA FARMACEUTICI S.r.l., priority 1985, dated 1986)", "key": {"Enterob. cloacee": {"system": "Enterob. cloacee", "test": "In vitro antibacterial activity (MIC), compound I versus 1:1 combination with amoxicillin (Table 3)", "format": "cell-based", "conditions": "2 strains, average value, compound I alone"}, "E. coli [1]": {"system": "E. coli", "test": "In vitro antibacterial activity (MIC), compound I versus 1:1 combination with amoxicillin (Table 3)", "format": "cell-based", "conditions": "Escherichia coli, 2 strains, average value, compound I alone"}, "Salmonella enteriditis": {"system": "Salmonella enteriditis", "test": "In vitro antibacterial activity (MIC), compound I versus 1:1 combination with amoxicillin (Table 3)", "format": "cell-based", "conditions": "2 strains, average value, compound I alone"}, "Staph. albus [2]": {"system": "Staph. albus", "test": "In vitro antibacterial activity (MIC), compound I versus 1:1 combination with amoxicillin (Table 3)", "format": "cell-based", "conditions": "1 strain, compound I alone"}, "[3]": {"system": "ß-Lactamase isolated from: E. coli", "test": "Inhibition of hydrolysis rates of ß-lactamases", "format": "biochemical", "method": "(§1) In order to further evaluate its therapeutic potentiality, compound I was tested for any inhibitory activity against B-lactamases."}, "[4]": {"system": "ß-Lactamase isolated from: B. cereus", "test": "Inhibition of hydrolysis rates of ß-lactamases", "format": "biochemical", "method": "as §1"}, "[5]": {"system": "B-lactamases from both Gram-positive and Gram-negative bacteria", "test": "Inhibitory activity against B-lactamases", "format": "biochemical", "conditions": "dosage of 100 δ", "method": "as §1"}, "[6]": {"system": "tryptic enzymes (trypsin, pepsin, etc.)", "test": "Stability to tryptic enzymes", "format": "in vitro ADME"}, "Pseudomonas aeruginosa": {"system": "Pseudomonas aeruginosa", "test": "In vitro antibacterial activity (MIC), compound I versus 1:1 combination with amoxicillin (Table 3)", "format": "cell-based", "conditions": "5 strains, average value, compound I alone"}, "Staph. aureus CH1": {"system": "Staph. aureus CH1", "test": "Minimal inhibitory concentrations (MIC) against amoxicillin resistant bacteria (Table 1)", "format": "cell-based", "conditions": "Staphylococcus aureus, Staph. aureus CH1, 1 strain"}, "[7]": {"system": "UR10(R446)xZM46 (plasmid R446, Inc M)", "test": "Inhibition of plasmid transfer by conjugation", "format": "cell-based, E. coli", "conditions": "Escherichia coli", "from_the_text": "(§2) Another advantageous feature of compound I resides in its ability to inhibit the transfer of bacterial plasmids by conjugation, said ability being shared by other compounds of quinoline structure and being important since it interferes with transmission of bacterial resistance.\n(§3) Phenotype symbols according Novick et al. (1976) were used.\n(§4) The following antibiotics were used: streptomycin (Sm), tetracycline (Tc), ampicillin (Ap), kanamycin (Km) and rifampicin (Rif). Compound I in 1 and 10 mcg/ml concentrations was used in the transfer mixtures. • - Microorganisms were grown in Nutrient Broth (B.B.L.), NB, or in Nutrient Agar or Mc Conkey Agar (B.B.L.). Appropriate antibiotic concentrations were added to the selection plates. Sm 10, Tc 10, Ap 30, Km 30, Rif 100 and Nal 50. • - Bacterial strains were incubated till 2.5 x 10^8 cells/ml of nutrient broth exponential phase, and crossed in a donor/recipient 1:5 ratio in 2 x broth during 18 hours at 37°C. On the other hand, in the interrupted crosses, the bacteria were stirred by means of the Vortex apparatus for 1 minute after 1 h cross. • - About one hundred colonies, which could growth on the selection plates (containing the various antibiotics) were checked for the resistance spectrum by \"replica plating\". • - The transfer frequence was expressed as the number of resistent recipients in comparison with the number of donors in the mating mixtures, at the plating time. The inhibition rate of plasmid transfer was evaluated in tests in which, in the mating mixtures, compound I was present in 1 or 10 mcg/ml concentrations.\n(§5) The activity of compound I was tested in different cross systems between E. coli x E. coli."}, "[8]": {"system": "CSH28F'lacproxZM46 (plasmid F'lacpro, Inc FI)", "test": "Inhibition of plasmid transfer by conjugation", "format": "cell-based, E. coli", "conditions": "Escherichia coli", "from_the_text": "as §2, §3, §4, §5"}, "[9]": {"system": "CSH50(RP4)xZM46 (plasmid RP4, Inc P)", "test": "Inhibition of plasmid transfer by conjugation", "format": "cell-based, E. coli", "conditions": "Escherichia coli", "from_the_text": "as §2, §3, §4, §5"}, "Pseudomas aeruginosa": {"system": "Pseudomas aeruginosa", "test": "Minimal inhibitory concentrations (MIC) against amoxicillin resistant bacteria (Table 1)", "format": "cell-based", "conditions": "5 strains"}, "Proteus mirabilis": {"system": "Proteus mirabilis", "test": "Minimal inhibitory concentrations (MIC) against amoxicillin resistant bacteria (Table 1)", "format": "cell-based", "conditions": "3 strains"}, "Staph. albus [10]": {"system": "Staph. albus", "test": "Minimal inhibitory concentrations (MIC) against amoxicillin resistant bacteria (Table 1)", "format": "cell-based", "conditions": "1 strain"}, "Staph. aureus coag. pos.": {"system": "Staph. aureus coag. pos.", "test": "Minimal inhibitory concentrations (MIC) against amoxicillin resistant bacteria (Table 1)", "format": "cell-based", "conditions": "Staphylococcus aureus, 4 strains"}, "Staph. aureus": {"system": "Staph. aureus", "test": "In vitro antibacterial activity (MIC), compound I versus 1:1 combination with amoxicillin (Table 3)", "format": "cell-based", "conditions": "Staphylococcus aureus, 8 strains, average value, compound I alone"}, "Serratia marcescens [11]": {"system": "Serratia marcescens", "test": "In vitro antibacterial activity (MIC), compound I versus 1:1 combination with amoxicillin (Table 3)", "format": "cell-based", "conditions": "2 strains, average value, compound I alone"}, "E. coli [12]": {"system": "E. coli", "test": "Minimal inhibitory concentrations (MIC) against amoxicillin resistant bacteria (Table 1)", "format": "cell-based", "conditions": "Escherichia coli, 6 strains"}, "Klebsiella pneumoniae": {"system": "Klebsiella pneumoniae", "test": "In vitro antibacterial activity (MIC), compound I versus 1:1 combination with amoxicillin (Table 3)", "format": "cell-based", "conditions": "4 strains, average value, compound I alone"}, "Serratia marcescens [13]": {"system": "Serratia marcescens", "test": "Minimal inhibitory concentrations (MIC) against amoxicillin resistant bacteria (Table 1)", "format": "cell-based", "conditions": "2 strains"}, "Citrob. freundii": {"system": "Citrob. freundii", "test": "In vitro antibacterial activity (MIC), compound I versus 1:1 combination with amoxicillin (Table 3)", "format": "cell-based", "conditions": "Citrobacter freundii, 2 strains, average value, compound I alone"}, "Proteus rettgeri": {"system": "Proteus rettgeri", "test": "In vitro antibacterial activity (MIC), compound I versus 1:1 combination with amoxicillin (Table 3)", "format": "cell-based", "conditions": "Providencia rettgeri, 1 strain, compound I alone"}, "B-lactamases": {"system": "B-lactamases", "test": "Stability to B-lactamases", "format": "in vitro ADME"}, "[14]": {"system": "Gram-positive and Gram-negative strains resistant to amoxicillin alone", "test": "MIC of amoxicillin alone against the resistant strains of Table 3", "format": "cell-based"}}, "data": [{"smiles": "CCn1cc(C(=O)NC(C(=O)NC2C(=O)N3C2SC(C)(C)C3C(=O)O)c2ccc(O)cc2)c(=O)c2ccc(C)nc21", "note": "[Compound I, D-(-)-α-[(1-ethyl-1,4-dihydro-7-methyl-4-oxo-1,8-naphthyridine-3-carboxyamido)-α-(p-hydroxyphenyl)-acetamido]penicil lanic acid]", "values": [{"measurement": "MIC", "setting": "Enterob. cloacee", "value": 100, "unit": "µg/mL"}, {"measurement": "MIC", "setting": "E. coli [1]", "value": 75, "unit": "µg/mL"}, {"measurement": "MIC", "setting": "Salmonella enteriditis", "value": 100, "unit": "µg/mL"}, {"measurement": "MIC", "setting": "Staph. albus [2]", "value": 6.25, "unit": "µg/mL"}, {"measurement": "% inhibition", "setting": "[3]; Conc. 50 γ/ml", "value": 50, "unit": "%"}, {"measurement": "% inhibition", "setting": "[3]; Conc. 75 γ/ml", "value": 90, "unit": "%"}, {"measurement": "% inhibition", "setting": "[3]; Conc. 100 γ/ml", "value": 100, "unit": "%"}, {"measurement": "% inhibition", "setting": "[4]; Conc. 50 γ/ml", "value": 50, "unit": "%"}, {"measurement": "% inhibition", "setting": "[4]; Conc. 75 γ/ml", "value": 90, "unit": "%"}, {"measurement": "% inhibition", "setting": "[4]; Conc. 100 γ/ml", "value": 100, "unit": "%"}, {"measurement": "inhibition of enzymatic activity of B-lactamases", "setting": "[5]", "value": "completely inhibiting any enzymatic activity"}, {"measurement": "stability to tryptic enzymes (trypsin, pepsin, etc.)", "setting": "[6]", "value": "stable to tryptic enzymes"}, {"measurement": "MIC", "setting": "Pseudomonas aeruginosa", "value": 50, "unit": "µg/mL"}, {"measurement": "MIC", "setting": "Staph. aureus CH1", "value": 1.56, "unit": "µg/mL"}, {"measurement": "inhibition at 1 µg/mL", "setting": "[7]", "value": 19.1, "unit": "%"}, {"measurement": "inhibition at 10 µg/mL", "setting": "[7]", "value": 74.5, "unit": "%"}, {"measurement": "inhibition at 1 µg/mL", "setting": "[8]", "value": 40.2, "unit": "%"}, {"measurement": "inhibition at 10 µg/mL", "setting": "[8]", "value": 69.7, "unit": "%"}, {"measurement": "inhibition at 1 µg/mL", "setting": "[9]", "value": 36.4, "unit": "%"}, {"measurement": "inhibition at 10 µg/mL", "setting": "[9]", "value": 66.2, "unit": "%"}, {"measurement": "MIC", "setting": "Pseudomas aeruginosa", "value": 50, "unit": "µg/mL"}, {"measurement": "MIC", "setting": "Proteus mirabilis", "value": 25, "unit": "µg/mL"}, {"measurement": "MIC", "setting": "Staph. albus [10]", "value": 6.25, "unit": "µg/mL"}, {"measurement": "MIC", "setting": "Staph. aureus coag. pos.", "value": 3.12, "unit": "µg/mL"}, {"measurement": "MIC", "setting": "Staph. aureus", "value": 10.3, "unit": "µg/mL"}, {"measurement": "MIC", "setting": "Serratia marcescens [11]", "value": 50, "unit": "µg/mL"}, {"measurement": "MIC", "setting": "E. coli [12]", "value": 25, "unit": "µg/mL"}, {"measurement": "MIC", "setting": "Klebsiella pneumoniae", "value": 87.5, "unit": "µg/mL"}, {"measurement": "MIC", "setting": "Serratia marcescens [13]", "value": 50, "unit": "µg/mL"}, {"measurement": "MIC", "setting": "Citrob. freundii", "value": 100, "unit": "µg/mL"}, {"measurement": "MIC", "setting": "Proteus rettgeri", "value": 50, "unit": "µg/mL"}, {"measurement": "stability to B-lactamases", "setting": "B-lactamases", "value": "stable to B-lactamases"}]}, {"smiles": "CC1(C)S[C@@H]2[C@H](NC(=O)[C@H](N)c3ccc(O)cc3)C(=O)N2[C@H]1C(=O)O", "note": "[amoxicillin]", "values": [{"measurement": "MIC", "setting": "[14]", "value": "≥ 800", "unit": "µg/mL"}]}]}
